The results in this text go back to patent US8163771B2, “11 β-HSD1 modulators” (Exelixis, Inc., priority 2008, dated 2012).

In this test the target is T1, recombinant human 11 β-HSD1 (Homo sapiens, UniProt P28845).
T1 construct: made in house; host or cells: E. coli
The test is described as follows: 11 β-HSD1 SPA Assay (Scintillation Proximity Assay). The test is classed as biochemical. The essentials: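 Scintillation proximity read-out of cortisol formed from 40 nM [3H]cortisone by purified recombinant human enzyme (30-100 nM, E. coli) with 1 mM NADPH, pH7.4, 2 hours at room temperature; beads with cortisol antibody and glycyrrhetinic acid stop the reaction, read next day. IC50 derived from inhibition normalised to background and maximal wells.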

T1 sequence (P28845 whole entry): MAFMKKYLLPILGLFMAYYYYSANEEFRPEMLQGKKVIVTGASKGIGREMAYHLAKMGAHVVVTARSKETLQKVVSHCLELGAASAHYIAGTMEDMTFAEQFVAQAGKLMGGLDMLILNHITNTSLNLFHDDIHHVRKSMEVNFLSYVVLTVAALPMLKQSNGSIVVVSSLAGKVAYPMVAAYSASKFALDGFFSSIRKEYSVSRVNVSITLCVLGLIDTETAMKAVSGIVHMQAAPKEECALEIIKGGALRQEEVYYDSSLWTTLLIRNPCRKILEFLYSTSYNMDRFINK

Consider `CC(C)(Oc1ccc(F)cc1C(F)(F)F)C(=O)N[C@H]1C[C@H]2CC[C@@H](C1)N2c1ccc(S(C)(=O)=O)cn1` [Example 176, 2-{[4-fluoro-2-(trifluoromethyl)phenyl]oxy}-2-methyl-N-{8-[5-(methylsulfonyl)pyridin-2-yl]-8-azabicyclo[3.2.1]oct-3-endo-yl}propanamide], for which the IC50 is less than 0.2 µM. The same measure for `CC(C)(Oc1ccc(F)cc1C(F)(F)F)C(=O)N[C@H]1C[C@H]2CC[C@@H](C1)N2c1ccc(S(N)(=O)=O)cn1` [Example 177, N-{8-[5-(aminosulfonyl)pyridin-2-yl]-8-azabicyclo[3.2.1]oct-3-endo-yl}-2-{[4-fluoro-2-(trifluoromethyl)phenyl]oxy}-2-methylpropanamide]: less than 0.2 µM. Consider `CC(C)(Oc1c(Cl)cc(F)cc1Cl)C(=O)N[C@H]1C[C@H]2CC[C@@H](C1)N2c1ccc(S(C)(=O)=O)cn1` [Example 178, 2-[(2,6-dichloro-4-fluorophenyl)oxy]-2-methyl-N-{8-[5-(methylsulfonyl)pyridin-2-yl]-8-azabicyclo[3.2.1]oct-3-endo-yl}propanamide], for which the IC50 was less than 0.2 µM. Turning to `CC(C)(Oc1c(Cl)cc(F)cc1C(F)(F)F)C(=O)N[C@H]1C[C@H]2CC[C@@H](C1)N2c1ccc(S(C)(=O)=O)cn1` [Example 179, 2-{[2-chloro-4-fluoro-6-(trifluoromethyl)phenyl]oxy}-2-methyl-N-{8-{5-(methylsulfonyl)pyridin-2-yl]-8-azabicyclo[3.2.1]oct-3-endo-yl}propanamide], the IC50 is less than 0.2 µM. Turning to `COc1ccc(OC(C)(C)C(=O)N[C@H]2C[C@H]3CC[C@@H](C2)N3c2ccc(S(C)(=O)=O)cn2)cc1` [Example 180, 2-methyl-2-{[4-(methyloxy)phenyl]oxy}-N-{8-[5-(methylsulfonyl)pyridin-2-yl]-8-azabicyclo[3.2.1]oct-3-endo-yl}propanamide], the IC50 was less than 0.2 µM. The same measure for `COc1ccc(OC(C)(C)C(=O)N[C@H]2C[C@H]3CC[C@@H](C2)N3c2ccc(S(N)(=O)=O)cn2)cc1` [Example 181, N-{8-[5-(aminosulfonyl)pyridin-2-yl]-8-azabicyclo[3.2.1]oct-3-endo-yl}-2-methyl-2-{[4-(methyloxy)phenyl]oxy}propanamide]: less than 0.2 µM. Turning to `COc1ccc(OC(C)(C)C(=O)N[C@H]2C[C@H]3CC[C@@H](C2)N3c2ccc(S(C)(=O)=O)cc2)cc1` [Example 182, 2-methyl-2-{[4-(methyloxy)phenyl]oxy}-N-{8-[4-(methylsulfonyl)phenyl]-8-azabicyclo[3.2.1]oct-3-endo-yl}propanamide], the half-maximal inhibitory concentration (IC50) was less than 2 µM. As for `CC(C)(Oc1ccc(C(F)(F)F)cc1Cl)C(=O)N[C@H]1C[C@H]2CC[C@@H](C1)N2c1ccc(C(N)=O)cn1` [Example 183, 6-{3-endo-[(2-{[2-chloro-4-(trifluoromethyl)phenyl]oxy}-2-methylpropanoyl)amino]-8-azabicyclo[3.2.1]oct-8-yl}pyridine-3-carboxamide], the IC50 is less than 0.2 µM. The result for `CC(C)(Oc1ccc(C(F)(F)F)cc1Cl)C(=O)N[C@H]1C[C@H]2CC[C@@H](C1)N2c1ccc(C(=O)NCC(F)(F)F)cn1` [Example 184, 6-{3-endo-[(2-{[2-chloro-4-(trifluoromethyl)phenyl]oxy}-2-methylpropanoyl)amino]-8-azabicyclo[3.2.1]oct-8-yl}-N-(2,2,2-trifluoroethyl)pyridine-3-carboxamide] reads less than 0.2 µM. The same measure for `CC(C)(Oc1ccc(Cl)c(C(F)(F)F)c1)C(=O)N[C@H]1C[C@H]2CC[C@@H](C1)N2c1ccc(C(N)=O)cn1` [Example 185]: less than 0.2 µM; for `CC(C)(Oc1ccc(Cl)c(C(F)(F)F)c1)C(=O)N[C@H]1C[C@H]2CC[C@@H](C1)N2c1ccc(C(=O)NCC(F)(F)F)cn1` [Example 186, 6-{3-endo-[(2-{[4-chloro-3-(trifluoromethyl)phenyl]oxy}-2-methylpropanoyl)amino]-8-azabicyclo[3.2.1]oct-8-yl}-N-(2,2,2-trifluoroethyl)pyridine-3-carboxamide]: less than 0.2 µM; for `CC(C)(Oc1ccc(F)c(C(F)(F)F)c1)C(=O)N[C@H]1C[C@H]2CC[C@@H](C1)N2c1ccc(C(N)=O)cn1` [Example 187, 6-{3-endo-[(2-{[4-fluoro-3-(trifluoromethyl)phenyl]oxy}-2-methylpropanoyl)amino]-8-azabicyclo[3.2.1]oct-8-yl}pyridine-3-carboxamide]: less than 0.2 µM. The same measure for `CC(C)(Oc1ccc(F)c(C(F)(F)F)c1)C(=O)N[C@H]1C[C@H]2CC[C@@H](C1)N2c1ccc(C(=O)NCC(F)(F)F)cn1` [Example 188, 6-{3-endo-[(2-{[4-fluoro-3-(trifluoromethyl)phenyl]oxy}-2-methylpropanoyl)amino]-8-azabicyclo[3.2.1]oct-8-yl}-N-(2,2,2-trifluoroethyl)pyridine-3-carboxamide]: less than 0.2 µM; for `CC(C)(Oc1cc(C(F)(F)F)ccc1F)C(=O)N[C@H]1C[C@H]2CC[C@@H](C1)N2c1ccc(C(N)=O)cn1` [Example 189, 6-{3-endo-[(2-{[2-fIuoro-5-(trifluoromethyl)phenyl]oxy}-2-methylpropanoyl)amino]-8-azabicyclo[3.2.1]oct-8-yl}pyridine-3-carboxamide]: less than 0.2 µM.

For the compound `CC(C)(Oc1cc(C(F)(F)F)ccc1F)C(=O)N[C@H]1C[C@H]2CC[C@@H](C1)N2c1ccc(C(=O)NCC(F)(F)F)cn1` [Example 190, 6-{3-endo-[(2-{[2-fluoro-5-(trifluoromethyl)phenyl]oxy}-2-methylpropanoyl)amino]-8-azabicyclo[3.2.1]oct-8-yl}-N-(2,2,2-trifiuoroethyl)pyridine-3-carboxamide], the IC50 is less than 0.2 µM.

`CC(C)(Oc1ncc(Cl)cc1Cl)C(=O)N[C@H]1C[C@H]2CC[C@@H](C1)N2c1ccc(S(N)(=O)=O)cn1` [Example 191, N-{8-[5-(aminosulfonyl)pyridin-2-yl]-8-azabicyclo[3.2.1]oct-3-endo-yl}-2-[(3,5-dichloropyridin-2-yl)oxy]-2-methylpropanamide]: the IC50 was less than 0.2 µM. For the compound `CC(C)(Oc1ccc(C(F)(F)F)cn1)C(=O)N[C@H]1C[C@H]2CC[C@@H](C1)N2c1ccc(S(N)(=O)=O)cc1` [Example 192, N-{8-[4-(aminosulfonyl)phenyl]-8-azabicyclo[3.2.1]oct-3-endo-yl}-2-methyl-2-{[5-(trifluoromethyl)pyridin-2-yl]oxy}propanamide], the IC50 is less than 2 µM. Consider `CC(C)(Oc1ncc(Cl)cc1Cl)C(=O)N[C@H]1C[C@H]2CC[C@@H](C1)N2c1ccc(S(C)(=O)=O)cn1` [Example 193, 2-[(3,5-dichloropyridin-2-yl)oxy]-2-methyl-N-{8-[5-(methylsulfonyl)pyridin-2-yl]-8-azabicyclo[3.2.1]oct-3-endo-yl}propanamide], for which the half-inhibitory concentration (IC50) was less than 0.2 µM.

In the case of `CC(C)(Oc1ncc(Cl)cc1F)C(=O)N[C@H]1C[C@H]2CC[C@@H](C1)N2c1ccc(S(C)(=O)=O)cn1` [Example 194, 2-[(5-chloro-3-fluoropyridin-2-yl)oxy]-2-methyl-N-{8-[5-(methylsulfonyl)pyridin-2-yl]-8-azabicyclo[3.2.1]oct-3-endo-yl}propanamide], the IC50 is less than 2 µM.

As for `CC(C)(Oc1ncc(Cl)cc1F)C(=O)N[C@H]1C[C@H]2CC[C@@H](C1)N2c1ccc(S(C)(=O)=O)cc1` [Example 195, 2-[(5-chloro-3-fluoropyridin-2-yl)oxy]-2-methyl-N-{8-[4-(methylsulfonyl)phenyl]-8-azabicyclo[3.2.1]oct-3-endo-yl}propanamide], the IC50 was less than 2 µM. In the case of `CC(C)(Oc1ccc(C(F)(F)F)cn1)C(=O)N[C@H]1C[C@H]2CC[C@@H](C1)N2c1ccc(S(C)(=O)=O)cc1` [Example 196, 2-methyl-N-{8-[4-(methylsulfonyl)phenyl]-8-azabicyclo[3.2.1]oct-3-endo-yl}-2-{[5-(trifluoromethyl)pyridin-2-yl]oxy}propanamide], the IC50 is less than 2 µM. The result for `CC(C)(Oc1cc(Cl)c(Cl)cc1Cl)C(=O)N[C@H]1C[C@H]2CC[C@@H](C1)N2c1ccc(S(C)(=O)=O)cn1` [Example 197, 2-methyl-N-{8-[5-(methylsulfonyl)pyridin-2-yl]-8-azabicyclo[3.2.1]oct-3-endo-yl}-2-[(2,4,5-trichlorophenyl)oxy]propanamide] reads less than 0.2 µM; that for `CC(C)(Oc1cc(Cl)c(Cl)cc1Cl)C(=O)N[C@H]1C[C@H]2CC[C@@H](C1)N2c1ccc(S(N)(=O)=O)cn1` [Example 198, N-{8-[5-(aminosulfonyl)pyridin-2-yl]-8-azabicyclo[3.2.1]oct-3-endo-yl}-2-methyl-2-[(2,4,5-trichlorophenyl)oxy]propanamide], less than 0.2 µM; that for `CC(C)(Oc1cc(Cl)c(Cl)cc1Cl)C(=O)N[C@H]1C[C@H]2CC[C@@H](C1)N2c1ccc(S(C)(=O)=O)cc1` [Example 199, 2-methyl-N-{8-[4-(methylsulfonyl)phenyl]-8-azabicyclo[3.2.1]oct-3-endo-yl}-2-[(2,4,5-trichlorophenyl)oxy]propanamide], less than 0.2 µM.

Consider `CC(C)(Oc1ccc(F)cc1F)C(=O)N[C@H]1C[C@H]2CC[C@@H](C1)N2c1ccc(S(C)(=O)=O)cn1` [Example 200, 2-[(2,4-difluorophenyl)oxy]-2-methyl-N-{8-[5-(methylsulfonyl)pyridin-2-yl]-8-azabicyclo[3.2.1]oct-3-endo-yl}propanamide], for which the IC50 is less than 0.2 µM. On to `CC(C)(Oc1ccc(Cl)cc1)C(=O)N[C@H]1C[C@H]2CC[C@@H](C1)N2c1ccc(S(C)(=O)=O)cn1` [Example 201, 2-[(4-chlorophenyl)oxy]-2-methyl-N-{8-[5-(methylsulfonyl)pyridin-2-yl]-8-azabicyclo[3.2.1]oct-3-endo-yl}propanamide], for which the IC50 was less than 0.2 µM. The same measure for `CC(C)(Oc1ccc(Cl)cc1)C(=O)N[C@H]1C[C@H]2CC[C@@H](C1)N2c1ccc(S(N)(=O)=O)cn1` [Example 202, N-{8-[5-(aminosulfonyl)pyridin-2-yl]-8-azabicyclo[3.2.1]oct-3-endo-yl}-2-[(4-chlorophenyl)oxy]-2-methylpropanamide]: less than 0.2 µM.
